Test results from article PMC12049414 (Nature Communications, 2025).

Target: T1, human vesicular polyamine transporter (hVPAT) (Homo sapiens, UniProt Q6NT16)
T1 sequence (Q6NT16 1-456): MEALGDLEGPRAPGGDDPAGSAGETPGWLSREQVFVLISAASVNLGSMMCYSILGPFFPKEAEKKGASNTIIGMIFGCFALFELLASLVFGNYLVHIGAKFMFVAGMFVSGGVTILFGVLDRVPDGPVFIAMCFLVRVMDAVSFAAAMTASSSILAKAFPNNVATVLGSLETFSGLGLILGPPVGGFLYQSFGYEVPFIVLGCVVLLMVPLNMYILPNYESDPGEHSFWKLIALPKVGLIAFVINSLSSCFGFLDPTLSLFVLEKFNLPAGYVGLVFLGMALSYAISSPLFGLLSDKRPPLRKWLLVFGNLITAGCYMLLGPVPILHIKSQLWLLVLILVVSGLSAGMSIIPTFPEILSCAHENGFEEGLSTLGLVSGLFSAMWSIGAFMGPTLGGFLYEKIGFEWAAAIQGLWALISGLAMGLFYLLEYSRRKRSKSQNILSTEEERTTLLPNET
Assay: cryo-EM structure at […] Å
Type: biochemical

Ki: 2000 nM
SMILES: COc1cc2c(cc1OC)C1CC(=O)C(CC(C)C)CN1CC2 (stereo not shown) [TBZ, tetrabenazine]
